Results published in the supplement of paper PMC5412046.
Where a name gives a salt, the structure may show the parent alone.

Experiments:
[1] = system: SB.mhdgc-1; assay: area under the dose-response curve of % viability (trapezoidal, 11 doses) (% viability x log10 concentration); higher = less cytotoxic; conditions: SB.mhdgc-1 (hereditary c.1380delA CDH1 gastric cancer)
Summary of the method: (§1)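 After 48 h of compound exposure, viability of hereditary or sporadic patient-derived gastric cancer cells was measured by CellTiter-Glo luminescence. Compounds were added in DMSO at 11 threefold-diluted concentrations to 500 cells per 1536 well. Results are viability normalised to DMSO, either at the highest concentration or as trapezoidal area under the curve.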

[2] = system: SB.msgc-1; assay: as above; conditions: SB.msgc-1 (sporadic gastric cancer)
Summary of the method: as §1

[3] = system: SB.mhdgc-1; assay: viability at highest tested concentration (MAXR) relative to DMSO; higher = less cytotoxic; conditions: SB.mhdgc-1 (hereditary c.1380delA CDH1 gastric cancer)
Summary of the method: as §1

[4] = system: SB.msgc-1; assay: as above; conditions: SB.msgc-1 (sporadic gastric cancer)
Summary of the method: as §1

Structure (SMILES)	area under the dose-response curve [1]	area under the dose-response curve [2]	viability [3]	viability [4]
COc1ccc(C[C@@H](C)[C@@H](C)Cc2ccc(OC)c(OC)c2)cc1OC [Terameprocol] (top concentration 46.0829 µM)	445	455	36.6%	34.2%
COc1cc2nc(N3CCN(C(=O)C4CCCO4)CC3)nc(N)c2cc1OC (stereo not given) [Terazosin hydrochloride] (top concentration 46.0829 µM)	496	539	98.7%	104%
CN(C/C=C/C#CC(C)(C)C)Cc1cccc2ccccc12 [Terbinafine hydrochloride] (top concentration 46.0829 µM)	496	557	109%	97.5%
C/C(O)=C(\C#N)C(=O)Nc1ccc(C(F)(F)F)cc1 [Teriflunomide] (top concentration 46.0829 µM)	515	464	13.5%	20.3%
CCN(CC)CCOc1ccc(Cc2ccccc2)cc1 [Tesmilifene hydrochloride] (top concentration 46.0829 µM)	584	330	63.8%	40.1%
C[C@]12CC[C@H]3[C@@H](CCC/4=C/C(=O)CC[C@]34C)[C@@H]1CC[C@@H]2OC(=O)CCC5CCCC5 [Testosterone cypionate] (top concentration 46.0829 µM)	513	448	63.1%	60.5%
CCC(=O)OC1CCC2C3CCC/4=C/C(=O)CC[C@@]4(C)C3CC[C@]12C (stereo not given in full) [Testosterone propionate] (top concentration 46.0829 µM)	540	484	106%	83.4%
C[C@]12CC[C@H]3[C@@H](CCC/4=C/C(=O)CC[C@]34C)[C@@H]1CC[C@@H]2O [Testosterone] (top concentration 46.0829 µM)	486	468	87.8%	75.8%
COc1cc2c(cc1OC)C1CC(=O)C(CC(C)C)CN1CC2 (stereo not given) [Tetrabenazine] (top concentration 46.0829 µM)	566	538	102%	98.4%
CN(C)[C@H]\1[C@@H]2C[C@H]3C(=C(O)\[C@]2(O)C(=O)\C(=C1O)C(N)=O)/C(=O)C4=C(O)C=CC=C4[C@@]3(C)O [Tetracycline hydrochloride] (top concentration 46.0829 µM)	531	566	88.8%	81.7%
COc1ccc2c(c1OC)CN1CCc3cc4c(cc3C1C2)OCO4 (stereo not given) [Tetrahydroberberine Canadine] (top concentration 46.0829 µM)	550	292	72.5%	23.9%
COc1ccc(CC2NCCc3cc(OC)c(OC)cc32)cc1OC (stereo not given) [Tetrahydropapaverine] (top concentration 46.0829 µM)	437	429	51.3%	56.7%
O=C1NC(O)CCN1[C@@H]1O[C@H](CO)[C@@H](O)[C@H]1O (stereo not given in full) [Tetrahydrouridine] (top concentration 46.0829 µM)	546	550	103%	113%
COc1ccc2cc1Oc1ccc(cc1)C[C@H]1c3cc(c(OC)cc3CCN1C)Oc1c(OC)c(OC)cc3c1[C@H](C2)N(C)CC3 [Tetrandrine] (top concentration 46.0829 µM)	538	507	57.7%	48.5%
O=C1CCC(N2C(=O)c3ccccc3C2=O)C(=O)N1 (stereo not given) [Thalidomide] (top concentration 46.0829 µM)	526	522	149%	114%
C/C=C(/C)C(=O)O[C@H]1C(C)=C2[C@H]([C@@H]1OC(=O)CCCCCCC)[C@@](C)(OC(C)=O)C[C@H](OC(=O)CCC)[C@@]1(O)[C@H]2OC(=O)[C@@]1(C)O [Thapsigargin] (top concentration 46.0829 µM)	237	268	2.37%	2.33%
Cn1cnc2c1c(=O)[nH]c(=O)n2C [Theobromine] (top concentration 46.0829 µM)	531	373	4.3%	1.84%
Cn1c(=O)c2[nH]cnc2n(C)c1=O [Theophyllamine] (top concentration 46.0829 µM)	560	614	87.8%	123%
c1ccc2[nH]c(-c3cscn3)nc2c1 [Thiabendazole] (top concentration 46.0829 µM)	469	487	66.9%	104%
C[S+](=O)([O-])c1ccc([C@@H](O)[C@@H](CO)NC(=O)C(Cl)Cl)cc1 [Thiamphenicol] (top concentration 46.0829 µM)	462	508	43.5%	83.5%
O=C(NCc1ccccc1)c1csc(Nc2ccncn2)n1 [Thiazovivin] (top concentration 46.0829 µM)	413	496	15.5%	56.6%
S=P(N1CC1)(N1CC1)N1CC1 [ThioTEPA] (top concentration 46.0829 µM)	519	514	47.4%	75%
Clc1ccccc1CN1CCc2sccc2C1 [Ticlopidine hydrochloride] (top concentration 46.0829 µM)	536	552	119%	108%

Structure (SMILES)	area under the dose-response curve [1]	area under the dose-response curve [2]	viability [3]	viability [4]
COc1ccc2cc(-c3[nH]c(-c4ccc([S+](C)[O-])cc4)nc3-c3ccncc3)ccc2c1 (stereo not given) [Tie-2 kinase inhibitor] (top concentration 46.0829 µM)	520	485	35.6%	49.6%
CN(C)c1cc(NC(=O)CNC(C)(C)C)c(O)c2c1C[C@H]1C[C@H]3[C@H](N(C)C)C(O)=C(C(N)=O)C(=O)[C@@]3(O)C(O)=C1C2=O [Tigecycline] (top concentration 46.0829 µM)	578	525	99.4%	98.6%
Clc1ccc(C(Cn2ccnc2)OCc2ccsc2Cl)c(Cl)c1 (stereo not given) [Tioconazole] (top concentration 46.0829 µM)	544	538	87.4%	57.8%
NC/1=N/C2=C([NH]C=N2)C(=S)N1 [Tioguanine] (top concentration 46.0829 µM)	467	445	60.5%	23.4%
CC(S)C(=O)NCC(=O)O (stereo not given) [Tiopronin] (top concentration 46.0829 µM)	473	557	81.2%	110%
C[N+]1(C)[C@@H]2CC(OC(=O)C(O)(c3cccs3)c3cccs3)C[C@H]1[C@@H]1O[C@@H]12 (stereo not given in full) [Tiotropium bromide] (top concentration 46.0829 µM)	477	528	118%	113%
O=c1oc2cc(O)ccc2s1 [Tioxolone] (top concentration 46.0829 µM)	577	543	35.5%	86.2%
C[N]1C=NC=C1[C@@](N)(C2=CC=C(Cl)C=C2)C3=CC=C4N(C)C(=O)\C=C(\C5=CC=CC(=C5)Cl)C4=C3 [Tipifarnib] (top concentration 46.0829 µM)	485	434	4.28%	24.2%
O=C(O)C(=O)c1cn(Cc2ccccc2)c2ccc(-c3ccc(OC(F)(F)F)cc3)cc12 [Tiplasinin] (top concentration 46.0829 µM)	597	468	102%	72.1%
O=C1NC(=O)[C@@H](c2cn3c4c(cccc24)CCC3)[C@@H]1c1c[nH]c2ccccc12 [Tivantinib] (top concentration 46.0829 µM)	369	392	39.4%	36.2%
COc1cc2nccc(Oc3ccc(NC(=O)Nc4cc(C)on4)c(Cl)c3)c2cc1OC [Tivozanib] (top concentration 46.0829 µM)	460	446	26.3%	48.1%
ClC1=C(N\C2=N\CCN2)C3=NSN=C3C=C1 [Tizanidine hydrochloride] (top concentration 46.0829 µM)	536	570	131%	132%
NC[C@H]1O[C@H](O[C@H]2[C@H](O)[C@@H](O[C@H]3O[C@H](CO)[C@@H](O)[C@H](N)[C@H]3O)[C@H](N)C[C@@H]2N)[C@H](N)C[C@@H]1O [Tobramycin] (top concentration 46.0829 µM)	536	515	110%	112%
C[C@@H]1CCN(C(=O)CC#N)C[C@@H]1N(C)c1ncnc2[nH]ccc12 [Tofacitinib] (top concentration 46.0829 µM)	495	484	82.7%	98.8%
Cc1ccc(C(=O)c2cc(O)c(O)c([N+](=O)[O-])c2)cc1 [Tolcapone] (top concentration 46.0829 µM)	523	459	40.4%	25.3%
Cc1cccc(N(C)C(=S)Oc2ccc3ccccc3c2)c1 [Tolnaftate] (top concentration 46.0829 µM)	490	542	85.8%	84.4%
Cc1ccc(O)c(C(CCN(C(C)C)C(C)C)c2ccccc2)c1.Cl (stereo not given) [Tolterodine tartrate] (top concentration 46.0829 µM)	501	571	83.9%	109%
Cc1ccccc1C(=O)Nc1ccc(C(=O)N2CCCC(O)c3cc(Cl)ccc32)c(C)c1 (stereo not given) [Tolvaptan] (top concentration 46.0829 µM)	497	533	14%	94.1%
CC[C@@]1(O)C(=O)OC\C2=C1\C=C3/N(CC4=CC5=C(C=CC(=C5CN(C)C)O)N=C34)C2=O [Topotecan hydrochloride] (top concentration 46.0829 µM)	241	338	48.2%	26.5%
Cc1cccc(Nc2ccncc2[S+](=O)([O-])NC(=O)NC(C)C)c1 [Torasemide] (top concentration 46.0829 µM)	459	521	105%	93%
CCOC(=O)N1c2ccc(C(F)(F)F)cc2[C@@H](N(Cc2cc(C(F)(F)F)cc(C(F)(F)F)c2)C(=O)OC)C[C@H]1CC [Torcetrapib] (top concentration 46.0829 µM)	538	503	57.1%	60.6%
CN(C)CCOc1ccc(/C(=C(/CCCl)c2ccccc2)c2ccccc2)cc1 [Toremifene] (top concentration 46.0829 µM)	432	477	3.26%	1.34%
